Experimental data from US8394809B2, “Phenoxy-substituted pyrimidines as opioid receptor modulators” (priority 2009, dated 2013).
Like-named read-outs stand apart in the source and are kept apart here.

Tests used:
[1] = target: T1, delta opioid receptor (Rattus norvegicus, UniProt P33533); test: Rat brain delta opioid receptor binding assay; details: rat forebrain membranes
T1 construct: the forebrains were homogenized in Tris buffer in a Teflon®-glass homogenizer; from tissue; host or cells: forebrain of male Wistar rats, particulate membrane preparation
Method: (§1) Procedure: Male, Wistar rats (150-250 g, VAF, Charles River, Kingston, N.Y.) were killed by CO2, and their brains were removed and placed immediately in ice cold Tris HCl buffer (50 mM, pH 7.4). The forebrains were separated from the remainder of the brain by a coronal transection, beginning dorsally at the colliculi and passing ventrally through the midbrain-pontine junction. After dissection, the forebrains were homogenized in Tris buffer in a Teflon®-glass homogenizer. The homogenate was diluted to a concentration of 1 g of forebrain tissue per 80 mL Tris and centrifuged at 39,000×g for 10 min. The pellet was resuspended in the same volume of Tris buffer containing 5 mM MgCl2 with several brief pulses from a Polytron homogenizer. This particulate preparation was used for the delta opioid binding assays. Following incubation with the delta selective peptide ligand ˜4 nM [^3H]DPDPE or 0.25 nM [^3H]naltrindole at 25° C. for 2.5 h in a 96-well plate with total volume of […], the plate contents were filtered through Wallac filtermat B sheets on a Tomtec 96-well harvester. […] To each sample area 2×50 μL of Betaplate Scint scintillation fluid (LKB) was added and the radioactivity was quantified on a LKB (Wallac) 1205 BetaPlate liquid scintillation counter.
(§2) Analysis: The data from the scintillation counter was used to calculate either the % inhibition compared to control binding (when only a single concentration of test compound was evaluated) or a Ki value (when a range of concentrations was tested). Percent inhibition was calculated as: [(total dpm−test compound dpm)/(total dpm-nonspecific dpm)]*100. Kd and Ki values were calculated using GraphPad PRISM data analysis program.

[2] = target: T2, mu opioid receptor (Rattus norvegicus, UniProt P33535); test: Rat brain mu opioid receptor binding assay; details: rat forebrain membranes, ~0.8 nM [3H]DAMGO; read-out: μ-binding Ki
T2 construct: the forebrains were homogenized in Tris buffer in a Teflon®-glass homogenizer; from tissue; host or cells: forebrain of male Wistar rats, particulate membrane preparation
Method: as §1, with “mu” for “delta”, “ligand, ˜0.8” for “ligand ˜4”, “[^3H]DAMGO,” for “[^3H]DPDPE or 0.25 nM [^3H]naltrindole”, “total assay” for “total”, “2×40” for “2×50”, “quantifed” for “quantified”
as §2

[3] = target: T3, delta opioid receptor (Mus musculus, UniProt P32300); test: [35S]GTPγS binding assay in NG108-15 cell membranes (delta opioid functional assay); format: biochemical; details: for GTPγS δ-Rel Efficacy @200 nM: 200 nM compound, relative to calculated max of SNC80 dose response
T3 construct: NG108-15 cell membranes were purchased from Applied Cell Sciences (Rockville, Md.); host or cells: NG108-15 cell membranes (purchased)
Method: Methods: NG108-15 cell membranes were purchased from Applied Cell Sciences (Rockville, Md.). 5 mg/mL of membrane protein was suspended in 10 mM TRIS-HCl pH 7.2, 2 mM EDTA, 10% sucrose. Membranes were maintained at 4-8° C. A 1 mL volume of membranes was added into 10 mL cold binding assay buffer. The assay buffer contained 50 mM Tris, pH 7.6, 5 mM MgCl2, 100 mM NaCl, 1 mM DTT and 1 mM EGTA. The membrane suspension was homogenized twice with a Polytron, and centrifuged at 3000 rpm for 10 min. The supernatant was then centrifuged at 18,000 rpm for 20 min. Ten mL assay buffer was added into the pellet containing tube. The pellet and buffer were mixed with a Polytron.
Incubation procedure: The pellet membranes (75 μg/mL) were preincubated with SPA (10 mg/mL) at 25° C. for 45 min in the assay buffer. […] 200 nM of receptor agonists was used to stimulate [^35S]-GTPγS binding. The basal binding was tested in the absence of agonists and non-specific binding was tested in the presence of 10 μM unlabeled GTPγS.
Data % of Basal=(stimulated−non specific)*100/(basal−non specific). Relative Efficacy of a compound at 200 nM=(% of Basal of test compound at 200 nM)/(Calculated Max of SNC80 dose response. Curve in prism).

[4] = target: T3, delta opioid receptor; test: as above; format: biochemical; details: 10 μM
[5] = ~4 nM [3H]DPDPE, read-out: δ-binding (DPDPE ligand) Ki
[6] = 0.25 nM [3H]naltrindole, read-out: δ-binding (Naltrindole ligand) Ki

T3 sequence (P32300 whole entry): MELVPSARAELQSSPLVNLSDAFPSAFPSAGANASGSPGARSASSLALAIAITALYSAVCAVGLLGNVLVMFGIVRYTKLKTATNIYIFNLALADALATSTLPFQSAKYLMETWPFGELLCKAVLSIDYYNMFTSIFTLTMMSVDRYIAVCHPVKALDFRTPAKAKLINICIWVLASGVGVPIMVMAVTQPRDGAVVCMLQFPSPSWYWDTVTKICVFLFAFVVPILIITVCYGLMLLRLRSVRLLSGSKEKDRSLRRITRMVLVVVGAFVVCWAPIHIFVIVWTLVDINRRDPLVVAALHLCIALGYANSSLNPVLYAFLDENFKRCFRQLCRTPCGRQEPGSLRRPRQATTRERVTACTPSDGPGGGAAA
T2 sequence (P33535 whole entry): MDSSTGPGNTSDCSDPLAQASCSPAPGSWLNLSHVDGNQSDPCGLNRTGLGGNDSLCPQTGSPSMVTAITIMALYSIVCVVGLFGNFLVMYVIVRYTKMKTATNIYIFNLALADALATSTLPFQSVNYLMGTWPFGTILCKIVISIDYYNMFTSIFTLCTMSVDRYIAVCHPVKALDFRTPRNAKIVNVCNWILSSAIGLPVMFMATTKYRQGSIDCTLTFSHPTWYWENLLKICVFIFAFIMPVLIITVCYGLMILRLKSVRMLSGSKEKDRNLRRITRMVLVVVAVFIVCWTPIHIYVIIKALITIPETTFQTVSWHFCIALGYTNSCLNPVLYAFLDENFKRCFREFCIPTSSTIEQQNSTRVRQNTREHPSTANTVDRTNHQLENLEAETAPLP
T1 sequence (P33533 whole entry): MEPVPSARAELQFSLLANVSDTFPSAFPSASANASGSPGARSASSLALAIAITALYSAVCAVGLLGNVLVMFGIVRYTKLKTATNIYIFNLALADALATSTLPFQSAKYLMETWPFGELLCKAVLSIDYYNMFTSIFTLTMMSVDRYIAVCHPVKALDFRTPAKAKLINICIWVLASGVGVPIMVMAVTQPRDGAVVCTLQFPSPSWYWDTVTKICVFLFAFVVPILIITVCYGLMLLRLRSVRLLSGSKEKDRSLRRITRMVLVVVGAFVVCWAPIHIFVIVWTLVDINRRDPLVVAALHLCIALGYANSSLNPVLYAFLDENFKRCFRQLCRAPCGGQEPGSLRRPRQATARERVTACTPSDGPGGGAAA

| Structure (SMILES) | Ki [1, 5] [nM] | Ki [2] [nM] | Ki [1, 6] [nM] | further results |
| --- | --- | --- | --- | --- |
| COc1ccc(Oc2ncc(NCCC3CCCNC3)c(Oc3ccc(OC)cc3)n2)cc1 (racemic) [Cpd 34] | 1120 | > 10000 |  |  |
| COc1ccc(Oc2ncc(NCCC3CCNCC3)c(Oc3ccc(OC)cc3)n2)cc1 [Cpd 33] | 1110 | > 10000 |  |  |
| COc1ccc(Oc2nc(Nc3nccs3)ncc2NC[C@@H]2CCCN2)cc1 [Cpd 50] |  |  |  | GTPγS δ-Rel Efficacy @200 nM [3]: 0.143 |
| COc1ccc(Oc2ncc(NCC3CCCN3)c(Oc3ccc(OC)cc3)n2)cc1 (racemic) [Cpd 6] |  | 1840 | 43.7 | GTPγS δ-opioid receptor % Inh @10 μM [4]: 12.502% |
| COc1ccc(Oc2nc(Oc3cccc(Cl)c3)ncc2NC[C@@H]2CCCN2)cc1 [Cpd 51] |  |  |  | GTPγS δ-opioid receptor Rel Efficacy [3]: 1.040; GTPγS δ-Rel Efficacy @200 nM [3]: 0.859; EC50 ([3]; GTPγS δ-opioid receptor EC50): 43 nM |
| COc1ccc(Oc2nc(Nc3cccc(F)c3)ncc2NC[C@@H]2CCCN2)cc1 [Cpd 49, N^2-(3-Fluoro-phenyl)-4-(4-methoxy-phenoxy)-N^5-pyrrolidin-2-(S)-ylmethyl-pyrimidine-2,5-diamine] |  |  |  | GTPγS δ-Rel Efficacy @200 nM [3]: 0.216 |
| COc1ccc(Oc2ncc(NC3CCCN(Cc4ccccc4)C3)c(Oc3ccc(OC)cc3)n2)cc1 (racemic) [Cpd 32] | 876 | > 10000 |  |  |
| COc1ccc(Oc2ncc(NC3CCNC3)c(Oc3ccc(OC)cc3)n2)cc1 (racemic) [Cpd 36] |  | > 10000 | 2140 |  |
| COc1ccc(Oc2ncc(CNC[C@@H]3CCCN3C)c(Oc3ccc(OC)cc3)n2)cc1 [Cpd 8] |  | 7160 | 92.5 |  |
| COc1ccc(Oc2ncc(NC[C@@H]3CCCN3C)c(Oc3ccc(OC)cc3)n2)cc1 [Cpd 9, [2,4-Bis-(4-methoxy-phenoxy)-pyrimidin-5-yl]-(1-methyl-pyrrolidin-2-(S)-ylmethyl)-amine] |  | 9290 | 115 |  |
| COc1ccc(Oc2ncc(NCC3CCCNC3)c(Oc3ccc(OC)cc3)n2)cc1 (racemic) [Cpd 15] |  | 3240 | 297 |  |
| COc1ccc(Oc2ncc(NCC3CCNCC3)c(Oc3ccc(OC)cc3)n2)cc1 [Cpd 17] |  | 12300 | 477 |  |
| COc1ccc(Oc2ncc(NC3CCNCC3)c(Oc3ccc(OC)cc3)n2)cc1 [Cpd 12] |  | 15200 | 174 |  |
| COc1ccc(Oc2nc(Oc3cccc(OC)c3)ncc2NC[C@@H]2CCCN2)cc1 [Cpd 52] |  |  |  | GTPγS δ-opioid receptor Rel Efficacy [3]: 0.935; GTPγS δ-Rel Efficacy @200 nM [3]: 0.624; EC50 ([3]; GTPγS δ-opioid receptor EC50): 51 nM |
| COc1ccc(Oc2ncc(NCc3ncc[nH]3)c(Oc3ccc(OC)cc3)n2)cc1 [Cpd 42] | 3810 | > 10000 |  |  |
| COc1ccc(Oc2ncc(NCC3CCNC3)c(Oc3ccc(OC)cc3)n2)cc1 (racemic) [Cpd 22] | 357 | 9280 |  |  |
| COc1ccc(Oc2ncc(NCc3ccncc3)c(Oc3ccc(OC)cc3)n2)cc1 [Cpd 39] |  | > 10000 | 3530 |  |
| COc1ccc(Oc2ncc(NC3CC4CCC(C3)N4)c(Oc3ccc(OC)cc3)n2)cc1 (stereo not shown) [Cpd 11] |  | 2150 | 155 |  |
| CCN(CC)CCC(C)Nc1cnc(Oc2ccc(OC)cc2)nc1Oc1ccc(OC)cc1 (racemic) [Cpd 38] |  | > 10000 | 3090 |  |

| Structure (SMILES) | Ki [1, 5] [nM] | Ki [2] [nM] | Ki [1, 6] [nM] | further results |
| --- | --- | --- | --- | --- |
| COc1ccc(Oc2ncc(NC[C@H](N)CO)c(Oc3ccc(OC)cc3)n2)cc1 [Cpd 21, 2-(S)-Amino-3-[2,4-bis-(4-methoxy-phenoxy)-pyrimidin-5-ylamino]propan-1-ol] | 348 | > 10000 |  |  |
| COc1ccc(Oc2ncc(NCC3CCCCN3)c(Oc3ccc(OC)cc3)n2)cc1 (racemic) [Cpd 25] | 489 | 2510 |  |  |
| COc1ccc(Oc2ncc(NC3CNCCC3c3ccccc3)c(Oc3ccc(OC)cc3)n2)cc1 (stereo not shown) [Cpd 35] | 1430 | > 10000 |  |  |
| COc1ccc(Nc2ncc(NC[C@@H]3CCCN3)c(Oc3ccc(OC)cc3)n2)cc1 [Cpd 23, 4-(4-Methoxyphenoxy)-N^2-(4-methoxyphenyl)-N^6-pyrrolidin-2-(S)-ylmethyl-pyrimidine-2,5-diamine] | 363 | > 10000 |  |  |
| COc1ccc(Oc2ncc(NC3CCN(C(C)=O)CC3)c(Oc3ccc(OC)cc3)n2)cc1 [Cpd 41] |  | > 10000 | 5320 |  |
| COc1ccc(Oc2nc(Nc3cccnc3)ncc2NC[C@@H]2CCCN2)cc1 [Cpd 48] |  |  |  | GTPγS δ-Rel Efficacy @200 nM [3]: 0.267 |
| COc1ccc(Oc2ncc(NCc3nccs3)c(Oc3ccc(OC)cc3)n2)cc1 [Cpd 43] | 4220 | > 10000 |  |  |
| COc1ccc(Oc2ncc(NCc3ccc(-n4ccnc4)cc3)c(Oc3ccc(OC)cc3)n2)cc1 [Cpd 37, [2,4-Bis-(4-methoxy-phenoxy)-pyrimidin-5-yl]-(4-imidazol-1-yl-benzyl)-amine] |  | > 10000 | 2700 |  |
| COc1ccc(Oc2ncc(NC3CCC(N)CC3)c(Oc3ccc(OC)cc3)n2)cc1 (stereo not shown) [Cpd 16] |  | 3860 | 455 |  |
| COc1ccc(Oc2ncc(NC[C@@H](N)CO)c(Oc3ccc(OC)cc3)n2)cc1 [Cpd 10] |  | > 10000 | 130 |  |
| COc1ccc(Oc2ncc(NCC3CNCCO3)c(Oc3ccc(OC)cc3)n2)cc1 (racemic) [Cpd 31] | 723 | > 10000 |  |  |
| COc1ccc(Oc2ncc(NC3CCN(Cc4ccccc4)C3)c(Oc3ccc(OC)cc3)n2)cc1 (racemic) [Cpd 27, (1-Benzyl-pyrrolidin-3-yl)-[2,4-bis-(4-methoxy-phenoxy)-pyrimidin-5-yl]-amine] |  | 3570 | 1020 |  |
| Fc1ccc(Oc2ncc(NCC3CCCN3)c(Oc3ccc(F)cc3)n2)cc1 (stereo not shown) [Cpd 24] | 396 | > 10000 |  |  |
| COc1ccc(C=Cc2ncc(NC[C@@H]3CCCN3)c(Oc3ccc(OC)cc3)n2)cc1 [Cpd 19, {4-(4-Methoxyphenoxy)-2-[2-(4-methoxyphenyl)vinyl]-pyrimidin-5-yl}-pyrrolidin-2-(S)-ylmethylamine] | 232 | 2050 |  |  |
| COc1ccc(Oc2ncc(NC(C)c3ccncc3)c(Oc3ccc(OC)cc3)n2)cc1 (racemic) [Cpd 40] |  | > 10000 | 4370 |  |
| COc1ccc(Oc2nc(Oc3cccc(C#N)c3)ncc2NC[C@@H]2CCCN2)cc1 [Cpd 53] |  |  |  | GTPγS δ-opioid receptor Rel Efficacy [3]: 1.033; GTPγS δ-Rel Efficacy @200 nM [3]: 0.705; EC50 ([3]; read-out: GTPγS δ-opioid receptor EC50): 53 nM |
| COc1ccc(Oc2nc(Oc3cc(F)cc(F)c3)ncc2NC[C@@H]2CCCN2)cc1 [Cpd 54] |  |  |  | GTPγS δ-Rel Efficacy @200 nM [3]: 0.066 |
| COc1ccc(Oc2nc([S+]([O-])c3ccc(OC)cc3)ncc2NC[C@@H]2CCCN2)cc1 (stereo partly drawn) [Cpd 20, [2-(4-Methoxybenzenesulfinyl)-4-(4-methoxyphenoxy)-pyrimidin-5-yl]-pyrrolidin-2-(S)-ylmethylamine] | 274 | > 10000 |  |  |
| COc1ccc(Oc2ncc(NCC3CNC3)c(Oc3ccc(OC)cc3)n2)cc1 [Cpd 13] |  | > 10000 | 238 |  |
